From US7592503B2, “Mammalian telophase oocyte enucleation” (Trustees of Tufts College, priority 1998, dated 2009)

Columns and labels:
[1] = tested on: mouse metaphase II oocytes; assay: Treatment-induced nuclear chromatin enucleation of activated oocytes (H33342 staining, fluorescence microscopy); format: cell-based; conditions: for rate of treatment-induced chromatin enucleation: ethanol- or ionomycin-activated B6D2 oocytes, Taxol 5 μg/ml, Cycloheximide 10 μg/ml, Demecolcine 0.4 μg/ml in PBS+10% FBS, 0.5-1.5 h post activation; for rate of treatment-induced chromatin enucleation (range in parentheses): same treatments, range printed in parentheses
Source text: Advances in somatic cell nuclear transfer (NT) methodology have seen the procession of cloned sheep, cows, mice and goats. Despite the clear potential use of this technology for genetic manipulations, the success rates remain woefully low. The limitations associated with nuclear transfer include the selection and preparation of competent donor cytoplasts. The cytoplasm plays a vital role in genome reprogramming and reactivation and therefore manipulations that compromise oocyte developmental competence are detrimental to the success of nuclear transfer. The present study was directed towards determining alternative methods to more efficiently prepare competent cytoplasts for nuclear transfer procedures. In experiment 1, in vivo-produced mouse metaphase II oocytes (B6D2, aguti, recovered at 16-20 h post hCG) were activated by exposure to either 7% ethanol or 2 μm ionomycin in PBS+10% FBS (5 min.). At the onset of initial second polar body formation (10-15 min. post activation) and extrusion (anaphase/telophase stage), oocytes were randomly allocated to control (cultured 0.5-1.5 h) or incubated with Taxol® (5 μg/ml), Cycloheximide (10 μg/ml) or in Demecolcine (0.4 μg/ml) in PBS+10% FBS until the second polar body was extruded (0.5-1.5 h post activation) to induce nuclear chromatin enucleation. Oocytes were stained (H33342, 5 μg/ml) to confirm the extent of nuclear chromatin enucleation using fluorescence microscopy. […] In experiment 2, Demecolcine-induced enucleated cytoplasts were used for nuclear transfer recipients. Donor nuclei were prepared from cumulus cells (Black Swiss) by partial lysis (1% sodium citrate) followed by aspiration using the injection pipette (7 um). Donor nuclei were injected into cytoplasts pretreated with Cytochalasin-B (5 μg/ml, 15 min.). Reconstructed NT embryos were subsequently co-cultured (72-96 h) with oviductal cells in drops of M-199+10% FBS. The cleavage rate was 70% (85/121) and the rate of blastocyst formation was 42% (51/121). Pregnancies were established in 2/3 recipients (CD1, white) following uterine embryo transfer (10 embryos/recipient). A total of 14 black female pups were born (47%, 14/30), seven of which were stillborn from 1 recipient and the other seven were born live (23%, 7/30) but 3 were cannibalized within 24 h. The 4 cloned pups were normal and healthy, and their fertility is being assessed. […] Moreover, cytoplasts derived from this enucleation procedure are competent to support genome reactivation and fetal development to term. This technically simple approach may provide a more efficient method to produce large numbers of cytoplasts for cloning procedures.

[2] = tested on: mouse oocytes; assay: Activation of metaphase II oocytes to Telophase II stage in vitro; format: cell-based; conditions: ionomycin 4 μM, 5 min; 3 replicate experiments
Procedure: Oocytes were collected from superovulated mice by flushing oviducts to collect metaphase II stage oocytes. Oocytes were then activated by one of two methods to reach the Telophase II state in vitro: culture-induced Ca^2+ activation or ionomycin activation (4 μM, 5 min), and enucleated. Karyoplasts were prepared from cumulus cells (natural G0 stage) and nuclear transfer was conducted followed by electrical fusion with Telophase II cytoplasts.

SMILES	rate of treatment-induced chromatin enucleation [1] [%]	rate of treatment-induced chromatin enucleation (range in parentheses) [1]	Activation, Number (activated/treated oocytes) [2]	Activation, Percent [2] [%]
C[C@@H]1C[C@@H]([C@H](O)CC2CC(=O)NC(=O)C2)C(=O)[C@@H](C)C1 [Cycloheximide]	16.3	0-24%		
CN[C@H]1CCc2cc(OC)c(OC)c(OC)c2-c2ccc(OC)c(=O)cc21 [Demecolcine]	54	27-70%		
C[C@H](CCC(=O)O)C[C@H](C)C[C@H](C)C(=O)/C=C(\O)[C@H](C)C[C@H](C)C/C=C/[C@@H](C)[C@@H](O)[C@@H](C)[C@@H](O)C[C@@H]1CC[C@@](C)([C@H]2CC[C@@](C)([C@@H](C)O)O2)O1 [Ionomycin, ionomycin]			46/50	92
CC(=O)O[C@H]1C(=O)[C@@]2(C)[C@H]([C@H](OC(=O)c3ccccc3)[C@]3(O)C[C@H](OC(=O)[C@H](O)[C@@H](NC(=O)c4ccccc4)c4ccccc4)C(C)=C1C3(C)C)[C@]1(OC(C)=O)CO[C@@H]1C[C@@H]2O [Taxol®, paclitaxel]	3.6	0-10%		
